Assay results published in PubChem BioAssay (NCI).
Where “and” joins values, the source holds several entries; their conditions need not be identical. Equal entries are not always repeated.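 Protocol summary: plate cells (96-well), add compound at 5 concentrations, incubate 48 h, interpolate endpoints linearly. GI50 marks 50% less growth. TGI: concentration producing complete growth inhibition.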

Assays:
Experiment in all cases: NCI tumour cell line growth inhibition, 48 h
[1] = tested on: MALME-3M melanoma
[2] = tested on: HCC-2998 colon
[3] = tested on: COLO 205 colon
[4] = tested on: ACHN renal
[5] = tested on: SF-539 CNS
[6] = tested on: HS 578T breast
[7] = tested on: SK-OV-3 ovarian
[8] = tested on: TK-10 renal
[9] = tested on: OVCAR-4 ovarian
[10] = tested on: K-562 leukemia

Structure (SMILES) | GI50 [1] | TGI [1] | GI50 [2] | TGI [2] | GI50 [3] | TGI [3] | GI50 [4] | TGI [4] | GI50 [5] | TGI [5] | GI50 [6] | TGI [6] | GI50 [7] | TGI [7] | GI50 [8] | TGI [8] | GI50 [9] | TGI [9] | GI50 [10] | TGI [10]
O=C1OCC2=C1C(c1cccc(C(F)(F)F)c1)c1cc3c(cc1N2CCO)CCC3 (stereo unspecified) | 0.714 µM | 10.5 µM | 0.177 µM | 6.76 µM | 0.163 µM | 1.59 µM | 0.441 µM | 9.23 µM | 0.132 µM | 0.46 µM | 0.146 µM | 7.72 µM | 0.179 µM | 8.64 µM | 0.359 µM | 10.9 µM | 1.05 µM | 11.2 µM | 0.174 µM | 28.1 µM
CCOC(=O)/C(=C\c1ccc(F)cc1)C(C)=O |  | 43.1 µM |  | 26.6 µM |  | > 100 µM |  | 50.7 µM |  | > 100 µM |  | > 100 µM |  | > 100 µM |  | 52.3 µM |  | > 100 µM |  | > 100 µM
CN(C)CCNC(=O)c1nc([N+](=O)[O-])cn1C |  | > 100 µM |  | > 100 µM |  | > 100 µM |  | > 100 µM |  | > 100 µM |  | > 100 µM |  | > 100 µM |  | > 100 µM |  | > 100 µM |  | > 100 µM
C[C@@H]1COC(Nc2ccc3ncnc(Nc4ccc(OCc5nccs5)c(Cl)c4)c3c2)=N1 | > 10 µM and 4.49 µM | > 10 µM and 18.5 µM | > 10 µM and 11.9 µM | > 10 µM and 39.6 µM | 3.79 µM and 4.86 µM | > 10 µM and 17.1 µM | 0.446 µM and 0.432 µM | > 10 µM and 16.6 µM | > 10 µM and 11.9 µM | > 10 µM and 29.1 µM | 5.23 µM and 5.24 µM | > 10 µM and 48.9 µM | 0.167 µM and 0.178 µM | > 10 µM and 14.4 µM | 0.235 µM and 0.259 µM | > 10 µM and 14.8 µM | 5.72 µM and 3.79 µM | > 10 µM and 17.3 µM | 4.05 µM and 4.08 µM | > 10 µM and 33.2 µM
Cc1cc2nc3c4cccc(O)c4n(CCN(C)C)c3nc2cc1C | 1.64 µM | 3.42 µM | 1.46 µM | 2.99 µM | 3.89 µM | 19.4 µM | 1.09 µM | 3.18 µM | 1.51 µM | 3.23 µM | 3.32 µM | 31.8 µM | 3.04 µM | 14.6 µM | 4.37 µM | 19.8 µM | 2.89 µM | 11.9 µM | 1.24 µM | 4.77 µM
CNCCOC(=O)/C=C1/CCC2C(C(O)CC3C(C)(C(=O)OC)CCCC23C)C1C (stereo unspecified) | 0.0253 µM | 0.0599 µM | 0.0329 µM | 0.115 µM | 0.0348 µM | 0.0958 µM | < 0.01 µM | 0.0173 µM | 0.0206 µM | 0.0408 µM | < 0.01 µM | 0.298 µM | 0.0205 µM | 0.0394 µM | 0.0168 µM | 0.0351 µM | 0.0183 µM | 0.034 µM | 0.0308 µM | 0.0953 µM
O=C1C=CC(=O)c2c1ncc1c2nc2sccn21 | 12.7 µM | 26.5 µM | 78.9 µM | > 100 µM | 40.3 µM | > 100 µM | 21.7 µM | 39.6 µM | 12.4 µM | 42.4 µM | 12.7 µM | 50.8 µM | 98.3 µM | > 100 µM | 18.3 µM | 33.5 µM | 27.7 µM | 59.8 µM | 30.1 µM | > 100 µM
CCN1CCC(CC(=O)Nc2n[nH]c3nc(-c4cccs4)c(Br)cc23)CC1 | 6.42 µM | 13.4 µM | 12 µM | > 25 µM | 3.91 µM | 8.16 µM | 7.96 µM | > 25 µM | 9.22 µM | > 22.2 µM | 12.3 µM | > 25 µM | 9.24 µM | > 25 µM | 5.81 µM | > 21.4 µM | 11.5 µM | > 25 µM | 7.61 µM | > 19.2 µM
CO/C(=N\N=C\c1cccc(C(F)(F)F)c1)c1ccncc1 | 9.42 µM | > 100 µM |  | 22.5 µM |  | 39.6 µM | 27.3 µM | > 100 µM |  | 37.1 µM |  | 38.7 µM |  | 99.1 µM |  | > 100 µM |  | > 100 µM | 3.08 µM | > 100 µM
Cc1ccc2nc(N/N=C/c3cccc(C)n3)cc(C)c2c1 |  | 30.3 µM |  | 27.6 µM |  | 32.6 µM |  | 31.4 µM |  | 38.3 µM |  | 50.9 µM |  | 30.2 µM |  | 30.4 µM |  | 41.5 µM |  | > 100 µM
O=C1CC/C(=C\COc2ccc3ccc(=O)oc3c2)O1 | 3.47 µM | 24.4 µM | 17 µM | 35.6 µM | 3.21 µM | 17.5 µM | 0.386 µM | 2.02 µM | 2.62 µM | 19.2 µM | 11.7 µM | 81.7 µM | 27.8 µM | > 100 µM | 2.83 µM | 17.7 µM | 4.78 µM | 23.7 µM | 9.89 µM | > 100 µM
Cc1ccc(F)cc1NC(=O)c1cc(Cl)ccc1Nc1ccccc1 | > 100 µM | > 100 µM | > 100 µM | > 100 µM | > 100 µM | > 100 µM | > 100 µM | > 100 µM | 40.7 µM | > 100 µM | 36.1 µM | > 100 µM | > 100 µM | > 100 µM | > 100 µM | > 100 µM | 15.9 µM | > 100 µM | 67.6 µM | > 100 µM
O=C(NC1(C(=O)O)CC1c1ccccc1)c1ccccc1 (stereo unspecified) |  | > 100 µM |  | > 100 µM |  | > 100 µM |  | > 100 µM |  | > 100 µM |  | > 100 µM |  | > 100 µM |  | > 100 µM |  | > 100 µM |  | > 100 µM
N=C(N)c1ccc(-c2ccc(-c3ccc(F)cc3)o2)o1 | 1.63 µM | 3.26 µM | 1.37 µM | 2.81 µM | 1.6 µM | 3.15 µM | 1.6 µM | 2.97 µM | 1.63 µM | 3.08 µM | 1.95 µM | 4.82 µM | 2.32 µM | 7.14 µM | 1.55 µM | 2.92 µM | 1.62 µM | 3.2 µM |  | 
Oc1cc(Cl)ccc1Cc1ccc(Cl)cc1O | 4.32 µM | 19.2 µM | 14.6 µM | 27.7 µM | 16.9 µM | 30.6 µM | 10 µM | 31.2 µM | 11.4 µM | 25.4 µM | 7.2 µM | 32.8 µM | 20.6 µM | 43.3 µM | 17 µM | 34.8 µM | 6.6 µM | 34.8 µM | 5.69 µM | > 100 µM
